Columns and labels:
Format in all cases: physicochemical
[1] = Dissolution test of ibuprofène (Sotax USP 4, HCl pH = 1); settings: in 45 minutes, 500 mL HCl pH = 1, 37°C, 50 mL/min
From the text: (§1) La dissolution de principes actifs à partir de comprimés selon l'invention, i.e. les comprimés formés à partir de fractions solubles de polymères de cyclodextrine, a été comparée à la dissolution de principes actifs à partir de comprimés formés à partir de cyclodextrines sous forme de monomères ainsi qu'à la dissolution du principe actif non compris dans une forme galénique.
(§2) La poudre contenant les cyclodextrines ou les fractions solubles de polymère de cyclodextrine et le principe actif a été obtenue par granulation humide comme détaillé dans l'exemple 4. Le ratio CD ou PolyCD / ibuprofène était de 90/10 et le ratio CD ou PolyCD / Piroxicam était de 60 / 40. Les essais de dissolution ont été réalisés dans un système Sotax® USP 4 (50 mL/min, 37°C) muni d'un détecteur UV. L'ibuprofène et le piroxicam ont été détectés à une longueur d'onde de 264 et 334 nm, respectivement.
(§3) Le milieu de dissolution est composé de 500 mL de HCl (pH = 1) dans le cas de l'ibuprofène, et de 500 mL de HCl (pH = 4) dans le cas du piroxicam. Des échantillons ont été prélevés toutes les 2 minutes pendant 1 h et analysés par un spectromètre UV-VIS (Perkin Elmer Lambda 25). Les courbes sont obtenues en pourcentage en divisant la quantité de principe actif libérée au cours du temps par la quantité de principe actif initiale.

[2] = Glass transition by DSC (Gordon-Taylor extrapolation of mannitol mixtures; quenched melt); settings: after melt-quench at 210°C, heating 5°C/min
Description: Les expériences de calorimétrie ont été réalisées avec la DSC Q200 de chez TA Instruments. Les échantillons ont été placés dans des creusets en aluminium ouverts et balayés avec de l'azote gazeux pur. L'instrument a été étalonné en température et en enthalpie en utilisant l'indium comme standard. […]
La figure 12 montre les thermogrammes des mélanges poly-βCD / mannitol enregistrés au chauffage (5°C/min). Ils présentent tous un saut de chaleur spécifique (Cp) caractéristique d'une transition vitreuse. Ce saut est unique, ce qui indique que les mélanges sont dans un état physique amorphe homogène. La température de transition vitreuse Tg (prise au point d'inflexion du saut) diminue lorsque la concentration en mannitol augmente ce qui montre l'effet plastifiant du mannitol sur la poly-βCD. L'évolution du Tg du mélange ave la concentration en mannitol (X) suit une loi de Gordon Taylor dont l'extrapolation à X = 0 permet d'estimer le Tg de la poly-βCD pure. On trouve Tg # 400°C. La transition vitreuse de la poly-βCD se situe donc à très haute température et bien au-dessus de sa température de dégradation thermique. Elle ne peut donc pas être observée directement en DSC. Une étude analogue menée avec la poly-MebCD révèle un comportement identique et une transition vitreuse proche de Tg = 317°C. […]

[3] = Dissolution test of piroxicam (Sotax USP 4, HCl pH = 4); settings: in 45 minutes; 500 mL HCl pH = 4, 37°C, 50 mL/min
From the text: as §1, §2, §3

[4] = Phase-solubility diagram of ibuprofène with cyclodextrins or soluble polymer fractions; settings: calculated from slope and So of the solubility diagram
Description: (§4) Les diagrammes de solubilité de plusieurs principes actifs ont été effectués en présence de cyclodextrines et de fractions solubles de polymères de cyclodextrine mentionnés à l'exemple 1.
(§5) Des solutions de concentration croissante de cyclodextrines et fractions solubles de polymères de cyclodextrine ont été préparées dans de l'eau ultrapure [0-70 g/L]. 10 mL de chacune des solutions ont été mis en présence d'un excès du principe actif (20 mg) sous agitation pendant 24 heures à température ambiante. Les solutions ont ensuite été filtrées avec une membrane en cellulose et en Nylon (0,45 µm; VWR International, USA) respectivement pour l'Ibuprofène et le Piroxicam. L'ibuprofène a été dosé par HPLC (Shimadzu LC-2010 HT Liquid Chromatography), la phase mobile de l'ibuprofène est un mélange acétonitrile/eau (60:40) avec un pH de 2,25, une colonne C18 a été utilisée. Le piroxicam a été dosé par spectrophotométrie UV-Vis à 356 nm (UV 1800 Shimadzu).
(§6) La constante de stabilité (K1:1) est utilisée pour comparer l'affinité de principes actifs pour différentes cyclodextrines ou dérivés. La solubilité totale de médicament (St) en solution aqueuse de cyclodextrine sera : [formula]
(§7) So = solubilité intrinsèque du médicament; [CD]1 = concentration totale en cyclodextrine dans le milieu aqueux
(§8) Une parcelle de St rapport [CD] t, selon l'équation (1), donnera une ligne droite avec une pente (K 1:1 So / (1 + K 1:1 So)) et une interception (Sint) égale à So. K 1:1 est calculée à partir de la pente et So : [formula]
Afin de pouvoir faire une comparaison directe entre cyclodextrine monomère et cyclodextrine polymérisée, les diagrammes de solubilité sont présentés en fonction de la concentration rapportée en gramme de monomère de cyclodextrine par litre. Tableau 3 : Solubilité de l'ibuprofène et constantes de complexation en présence des cyclodextrines ou de fractions solubles de polymères de cyclodextrine à 10 et 50 g/L en cyclodextrine. L'utilisation de cyclodextrines sous forme de monomères ne tombe pas sous l'étendue de la protection revendiquée.

[5] = Phase-solubility diagram of piroxicam with cyclodextrins or soluble polymer fractions; settings: calculated from slope and So of the solubility diagram
Description: as §4, §5, §6, §7, §8

| Compound | Constante de complexation K1:1 [4] [M⁻¹] | further results |
| --- | --- | --- |
| CC(C)Cc1ccc(C(C)C(=O)O)cc1 (stereo not shown) [ibuprofène, acide 2-[4-isobutylphényl]propanoique] | – | dissolution du principe actif [1]: 15% |
| CN1C(C(=O)Nc2ccccn2)=C(O)c2ccccc2S1(=O)=O [piroxicam, 1,1-dioxydede 4-hydroxy-2-méthyl-N-(2-pyridinyl)-2H-1,2-benzothiazine-3-carboxamide] | – | Tg (saut de chaleur spécifique) [2]: 65 °C; libération du piroxicam [3]: 10% |
| OC[C@H]1O[C@@H]2O[C@H]3[C@H](O)[C@@H](O)[C@@H](O[C@H]4[C@H](O)[C@@H](O)[C@@H](O[C@H]5[C@H](O)[C@@H](O)[C@@H](O[C@H]6[C@H](O)[C@@H](O)[C@@H](O[C@H]7[C@H](O)[C@@H](O)[C@@H](O[C@H]8[C@H](O)[C@@H](O)[C@@H](O[C@H]9[C@H](O)[C@@H](O)[C@@H](O[C@H]1[C@H](O)[C@H]2O)O[C@@H]9CO)O[C@@H]8CO)O[C@@H]7CO)O[C@@H]6CO)O[C@@H]5CO)O[C@@H]4CO)O[C@@H]3CO [γCD, γ-cyclodextrine] | 1 | Constante de complexation K1:1 [5]: 890 M⁻¹ |
| hydroxypropyl-β-cyclodextrine [HPβCD1] | 17 | – |
| hydroxypropyl-β-cyclodextrine [HPβCD2] | 45 | Constante de complexation K1:1 [5]: 185 M⁻¹ |
| hydroxypropyl-γ-cyclodextrine [HPγCD] | 11 | – |
| méthyl-β-cyclodextrine [MeβCD] | 33 | – |
